Test results published in patent publication US5475001A, “Quinazoline derivatives” (Zeneca Limited, priority 1993, dated 1995).

Assays:
liver hepatocyte growth = assay: in vivo inhibition of TGFα-stimulated liver hepatocyte growth in male rats (Test (c)); conditions: Rattus norvegicus, po
Procedure: (c) An in vivo assay in a group of male rats which determines the ability of a test compound (usually administered orally as a ball-milled suspension in 0.5% polysorbate) to inhibit the stimulation of liver hepatocyte growth caused by the administration of the growth factor TGFα (400 μg/kg subcutaneously, usually dosed twice, 3 and 7 hours respectively after the administration of the test compound).
In a control group of rats, the administration of TGFα causes on average a 5-fold stimulation of liver hepatocyte growth.
Cell-growth in the control and test animals is determined as follows:
On the morning of the day after the dosing of the test compound (or 0.5% polysorbate in the control group), the animals are dosed with bromodeoxyuridine (BrdU; 100 mg/kg intraperitoneally). The animals are killed four hours later and the livers are excised.
Further tests were carried out using a range of doses of the test compounds to allow the calculation of an approximate ED50 value for the inhibition of liver hepatocyte proliferation as determined by inhibition of the uptake of BrdU.

[1] = system: human naso-pharyngeal cancer cell line KB; assay: in vitro inhibition of the growth of the human naso-pharyngeal cancer cell line KB (Test (b)); assay type: cell-based; conditions: 72 h, KB cells, EGF (10 ng/ml), 3 days, MTT
Procedure: (b) An in vitro assay which determines the ability of a test compound to inhibit the growth of the human naso-pharyngeal cancer cell line KB.
KB cells were seeded into wells at a density of 1×10^4 -1.5×10^4 cells per well and grown for 24 hours in DMEM supplemented with 5% FCS (charcoal-stripped). Cell growth was determined after incubation for 3 days by the extent of metabolism of MTT tetrazolium dye to furnish a bluish colour. Cell growth was then determined in the presence of EGF (10 ng/ml) or in the presence of EGF (10 ng/ml) and a test compound at a range of concentrations. An IC50 value could then be calculated.

receptor tyrosine kinase = molecular target: T1, receptor tyrosine kinase (Homo sapiens, UniProt P00533); assay: in vitro inhibition of the enzyme receptor tyrosine kinase (Test (a)); assay type: biochemical; conditions: enzyme from A-431 cells, EGF stimulated
T1 construct: Receptor tyrosine kinase was obtained in partially purified form from A-431 cells; endogenous in cells; host or cells: A-431 cells (human vulval carcinoma), Triton X-100 solubilised membrane extract
Procedure: (a) An in vitro assay which determines the ability of a test compound to inhibit the enzyme receptor tyrosine kinase. Receptor tyrosine kinase was obtained in partially purified form from A-431 cells (derived from human vulval carcinoma) by procedures related to those described by Carpenter et. al., J. Biol. Chem., 1979, 254, 4884, Cohen et al., J. Biol. Chem., 1982, 257, 1523 and by Braun et al., J. Biol. Chem., 1984, 259, 2051.
A-431 cells were grown to confluence using Dulbecco's modified Eagle's medium (DMEM) containing 5% fetal calf serum (FCS). The obtained cells were homogenised in a hypotonic borate/EDTA buffer at pH 10.1. The homogenate was centrifuged at 400 g for 10 minutes at 0°-4° C. The supernatant was centrifuged at 25,000 g for 30 minutes at 0°-4° C. The pelleted material was suspended in 30 mM Hepes buffer at pH 7.4 containing 5% glycerol, 4 mM benzamidine and 1% Triton X-100, stirred for 1 hour at 0°-4° C., and recentrifuged at 100,000 g for 1 hour at 0°-4° C. The supernatant, containing solubilised receptor tyrosine kinase, was stored in liquid nitrogen.
For test purposes 40 μl of the enzyme solution so obtained was added to a mixture of 400 μl of a mixture of 150 mM Hepes buffer at pH 7.4, 500 μM sodium orthovanadate, 0.1% Triton X-100, 10% glycerol, 200 μl water, 80 μl of 25 mM DTT and 80μl of a mixture of 12.5 mM manganese chloride, 125 mM magnesium chloride and distilled water. There was thus obtained the test enzyme solution. […]
The test compound/EGF mixture solution (5 μl) was added to the test enzyme solution (10 μl) and the mixture was incubated at 0°-4° C. for 30 minutes. […] Radioactivity present in the filter paper was measured using a liquid scintillation counter (Sequence A). […]
Receptor tyrosine kinase inhibition was calculated as follows: [formula]
The extent of inhibition was then determined at a range of concentrations of test compound to give an IC50 value.

[2] = system: human mammary carcinoma which expresses epidermal growth factor (EGF) receptor tyrosine kinase; conditions: athymic nude mice; Toi et al., 1990; cited from earlier work
[3] = system: another carcinoma which does not express EGF receptor tyrosine kinase; conditions: Toi et al., 1990; cited from earlier work

T1 sequence (P00533 25-1210): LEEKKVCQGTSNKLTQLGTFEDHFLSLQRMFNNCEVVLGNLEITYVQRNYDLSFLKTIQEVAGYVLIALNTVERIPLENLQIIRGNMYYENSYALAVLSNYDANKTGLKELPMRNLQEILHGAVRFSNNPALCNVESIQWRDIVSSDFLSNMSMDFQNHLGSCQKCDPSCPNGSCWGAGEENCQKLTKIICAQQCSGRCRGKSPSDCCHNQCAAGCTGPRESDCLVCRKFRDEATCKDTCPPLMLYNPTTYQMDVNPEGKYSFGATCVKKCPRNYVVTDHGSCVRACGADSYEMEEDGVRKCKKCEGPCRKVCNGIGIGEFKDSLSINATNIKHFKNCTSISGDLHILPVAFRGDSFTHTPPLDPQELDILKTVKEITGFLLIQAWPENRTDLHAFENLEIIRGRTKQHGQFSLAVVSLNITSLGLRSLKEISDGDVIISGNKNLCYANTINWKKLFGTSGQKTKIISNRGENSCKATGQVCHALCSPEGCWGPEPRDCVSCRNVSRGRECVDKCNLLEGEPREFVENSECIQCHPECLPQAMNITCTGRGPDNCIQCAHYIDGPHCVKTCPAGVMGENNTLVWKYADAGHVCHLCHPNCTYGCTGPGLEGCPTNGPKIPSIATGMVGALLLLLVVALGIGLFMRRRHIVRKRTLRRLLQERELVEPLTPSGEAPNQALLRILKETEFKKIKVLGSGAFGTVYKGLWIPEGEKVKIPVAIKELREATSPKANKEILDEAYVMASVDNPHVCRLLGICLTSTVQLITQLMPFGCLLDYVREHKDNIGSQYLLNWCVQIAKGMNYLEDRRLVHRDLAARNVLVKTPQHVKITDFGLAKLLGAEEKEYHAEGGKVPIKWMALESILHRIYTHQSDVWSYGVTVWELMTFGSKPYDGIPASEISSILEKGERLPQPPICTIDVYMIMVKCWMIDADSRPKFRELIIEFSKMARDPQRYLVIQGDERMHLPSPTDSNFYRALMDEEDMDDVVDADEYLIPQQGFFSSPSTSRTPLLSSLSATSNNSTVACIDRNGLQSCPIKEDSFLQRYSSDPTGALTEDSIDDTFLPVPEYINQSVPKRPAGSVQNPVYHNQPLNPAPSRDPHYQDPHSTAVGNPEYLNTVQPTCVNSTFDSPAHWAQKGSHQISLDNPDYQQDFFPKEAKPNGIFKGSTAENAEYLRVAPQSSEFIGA
T1 sequence (P01133 971-1023 partner limits assumed): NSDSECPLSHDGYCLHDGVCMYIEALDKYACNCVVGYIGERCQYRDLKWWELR

IC50 [1] [nM]	IC50 (receptor tyrosine kinase) [nM]	SMILES	ED50 (liver hepatocyte growth) [mg/kg]	growth of transplanted human mammary carcinoma expressing EGF receptor tyrosine kinase [2]	growth of another carcinoma which does not express EGF receptor tyrosine kinase [3]
680	75	Cc1cccc(Nc2ncnc3cc(F)c(N)cc23)c1 [6-amino-7-fluoro-4-(3'-methylanilino)quinazoline]	< 40	–	–
20	10	Cc1cccc(Nc2ncnc3cc(F)c(NC(=O)CCl)cc23)c1 [6-(2-chloroacetamido)-7-fluoro-4-(3'-methylanilino)quinazoline]	–	–	–
–	–	O=CN/C=C/c1cc(O)ccc1O [erbstatin]	–	specifically attenuates the growth	without effect on the growth
530	70	COc1cc2c(Nc3ccc(F)c(Cl)c3)ncnc2cc1F [4-(3'-chloro-4'-fluoroanilino)-7-fluoro-6-methoxyquinazoline]	< 12.5	–	–
